Source: the NIST ThermoML archive (doi:10.1021/je8007759)

Assay: xn = mol fraction of the nth substance listed

CC1CCC(=O)O1 (stereo not given) [γ-valerolactone] + O=C=O
mass density [kg/m3], Fluid (supercritical or subcritical phases), Pycnometric method
Conditions | 308.2 K | 313.2 K
7520 kPa, x1 = 0.1 | 928 | –
7560 kPa, x1 = 0.05 | 838 | –
7630 kPa, x1 = 0.01 | 665 | –
7630 kPa, x1 = 0.05 | 842 | –
7640 kPa, x1 = 0.025 | 781 | –
7650 kPa, x1 = 0.01 | 669 | –
7670 kPa, x1 = 0.01 | 673 | –
7670 kPa, x1 = 0.1 | 932 | –
7690 kPa, x1 = 0.01 | 677 | –
7710 kPa, x1 = 0.05 | 845 | –
7710 kPa, x1 = 0.15 | 979 | –
7720 kPa, x1 = 0.01 | 681 | –
7720 kPa, x1 = 0.025 | 786 | –
7750 kPa, x1 = 0.01 | 685 | –
7790 kPa, x1 = 0.01 | 690 | –
7810 kPa, x1 = 0.1 | 935 | –
7820 kPa, x1 = 0.025 | 792 | –
7830 kPa, x1 = 0.01 | 694 | –
7850 kPa, x1 = 0.05 | 850 | –
7870 kPa, x1 = 0.01 | 698 | –
7910 kPa, x1 = 0.01 | 703 | –
7930 kPa, x1 = 0.025 | 798 | –
7970 kPa, x1 = 0.01 | 710 | –
8050 kPa, x1 = 0.01 | 717 | –
8060 kPa, x1 = 0.025 | 804 | –
8110 kPa, x1 = 0.05 | 855 | –
8150 kPa, x1 = 0.01 | 724 | –
8170 kPa, x1 = 0.025 | 809 | –
8200 kPa, x1 = 0.15 | – | 962
8230 kPa, x1 = 0.15 | 982 | –
8300 kPa, x1 = 0.01 | 734 | 547
8310 kPa, x1 = 0.01 | – | 557
8320 kPa, x1 = 0.01 | – | 561
8330 kPa, x1 = 0.01 | – | 565
8340 kPa, x1 = 0.01 | – | 568
8340 kPa, x1 = 0.05 | – | 809
8340 kPa, x1 = 0.1 | 942 | –
8350 kPa, x1 = 0.01 | – | 572
8350 kPa, x1 = 0.025 | 815 | –
8370 kPa, x1 = 0.01 | – | 576
8370 kPa, x1 = 0.025 | – | 726
8380 kPa, x1 = 0.01 | – | 581
8380 kPa, x1 = 0.1 | – | 913
8390 kPa, x1 = 0.01 | – | 589
8400 kPa, x1 = 0.05 | 862 | –
8410 kPa, x1 = 0.01 | – | 592
8410 kPa, x1 = 0.025 | – | 730
8420 kPa, x1 = 0.01 | – | 596
8430 kPa, x1 = 0.01 | – | 602
8440 kPa, x1 = 0.01 | – | 606
8450 kPa, x1 = 0.025 | – | 736
8460 kPa, x1 = 0.01 | 744 | 609
8460 kPa, x1 = 0.05 | – | 814
8470 kPa, x1 = 0.01 | – | 612
8480 kPa, x1 = 0.01 | – | 616
8500 kPa, x1 = 0.01 | – | 619
8510 kPa, x1 = 0.025 | – | 740
8520 kPa, x1 = 0.01 | – | 623
8520 kPa, x1 = 0.1 | – | 916
8530 kPa, x1 = 0.01 | – | 627
8530 kPa, x1 = 0.025 | 822 | –
8550 kPa, x1 = 0.025 | – | 745
8560 kPa, x1 = 0.01 | – | 630
8580 kPa, x1 = 0.01 | – | 634
8580 kPa, x1 = 0.15 | – | 965
8600 kPa, x1 = 0.01 | – | 638
8620 kPa, x1 = 0.025 | – | 750
8630 kPa, x1 = 0.01 | – | 641
8650 kPa, x1 = 0.01 | – | 645
8670 kPa, x1 = 0.01 | 754 | –
8670 kPa, x1 = 0.05 | – | 820
8680 kPa, x1 = 0.01 | – | 649
8680 kPa, x1 = 0.1 | 946 | –
8700 kPa, x1 = 0.025 | 827 | 755
8720 kPa, x1 = 0.01 | – | 653
8750 kPa, x1 = 0.01 | – | 657
8750 kPa, x1 = 0.05 | 869 | –
8760 kPa, x1 = 0.1 | – | 920
8780 kPa, x1 = 0.01 | – | 661
8780 kPa, x1 = 0.025 | – | 760
8810 kPa, x1 = 0.01 | – | 665
8830 kPa, x1 = 0.15 | 985 | –
8850 kPa, x1 = 0.01 | – | 669
8880 kPa, x1 = 0.025 | – | 765
8880 kPa, x1 = 0.05 | – | 826
8890 kPa, x1 = 0.01 | – | 673
8910 kPa, x1 = 0.01 | 765 | –
8940 kPa, x1 = 0.01 | – | 677
8940 kPa, x1 = 0.025 | 833 | –
8960 kPa, x1 = 0.025 | – | 771
8990 kPa, x1 = 0.01 | – | 681
9000 kPa, x1 = 0.1 | – | 923
9040 kPa, x1 = 0.01 | – | 686
9060 kPa, x1 = 0.025 | – | 775
9070 kPa, x1 = 0.15 | – | 969
9100 kPa, x1 = 0.01 | – | 690
9140 kPa, x1 = 0.05 | 875 | –
9150 kPa, x1 = 0.01 | – | 694
9180 kPa, x1 = 0.01 | 775 | –
9180 kPa, x1 = 0.025 | 840 | 781
9180 kPa, x1 = 0.05 | – | 835
9200 kPa, x1 = 0.01 | – | 698
9280 kPa, x1 = 0.01 | – | 703
9280 kPa, x1 = 0.1 | – | 926
9310 kPa, x1 = 0.025 | – | 786
9340 kPa, x1 = 0.01 | – | 708
9380 kPa, x1 = 0.1 | 953 | –
9400 kPa, x1 = 0.15 | 988 | –
9410 kPa, x1 = 0.025 | 845 | –
9430 kPa, x1 = 0.01 | – | 712
9440 kPa, x1 = 0.05 | – | 841
9450 kPa, x1 = 0.025 | – | 792
9500 kPa, x1 = 0.01 | 787 | 717
9510 kPa, x1 = 0.05 | 881 | –
9550 kPa, x1 = 0.1 | – | 929
9590 kPa, x1 = 0.01 | – | 721
9590 kPa, x1 = 0.025 | – | 798
9670 kPa, x1 = 0.15 | – | 972
9680 kPa, x1 = 0.01 | – | 727
9700 kPa, x1 = 0.025 | 852 | –
9710 kPa, x1 = 0.05 | – | 847
9780 kPa, x1 = 0.025 | – | 803
9880 kPa, x1 = 0.01 | – | 736
9880 kPa, x1 = 0.1 | – | 932
9890 kPa, x1 = 0.01 | 798 | –
9970 kPa, x1 = 0.025 | – | 810
9980 kPa, x1 = 0.15 | 991 | –
10000 kPa, x1 = 0.1 | 958 | –
10030 kPa, x1 = 0.05 | – | 852
10120 kPa, x1 = 0.01 | – | 746
10180 kPa, x1 = 0.025 | – | 815
10180 kPa, x1 = 0.1 | – | 936
10310 kPa, x1 = 0.15 | – | 976
10350 kPa, x1 = 0.01 | 810 | –
10370 kPa, x1 = 0.1 | – | 938
10390 kPa, x1 = 0.01 | – | 755
10390 kPa, x1 = 0.05 | – | 859
10400 kPa, x1 = 0.025 | – | 821
10540 kPa, x1 = 0.1 | – | 939
10620 kPa, x1 = 0.15 | – | 978
10630 kPa, x1 = 0.025 | – | 827
10680 kPa, x1 = 0.01 | – | 767
10720 kPa, x1 = 0.15 | 995 | –
10750 kPa, x1 = 0.05 | – | 865
11040 kPa, x1 = 0.1 | 967 | –
11360 kPa, x1 = 0.15 | 999 | –
11550 kPa, x1 = 0.1 | 970 | –
11980 kPa, x1 = 0.15 | 1002 | –
12070 kPa, x1 = 0.1 | 974 | –
12550 kPa, x1 = 0.1 | 978 | –
12950 kPa, x1 = 0.15 | 1006 | –
13110 kPa, x1 = 0.1 | 981 | –
13620 kPa, x1 = 0.15 | 1009 | –
13640 kPa, x1 = 0.1 | 984 | –
14250 kPa, x1 = 0.1 | 989 | –
14410 kPa, x1 = 0.15 | 1013 | –
14770 kPa, x1 = 0.1 | 992 | –
15180 kPa, x1 = 0.15 | 1016 | –
16060 kPa, x1 = 0.15 | 1020 | –
16850 kPa, x1 = 0.15 | 1023 | –

308.2 K, Liquid, high pressure variable cell
Conditions | mass density [kg/m3]
x1 = 0.01 | 663
x1 = 0.025 | 777
x1 = 0.05 | 834
x1 = 0.1 | 920
x1 = 0.15 | 972
